Results: PMC7534274 (Journal of Enzyme Inhibition and Medicinal Chemistry, 2020)
Where two headings read alike, the source gives them in different places.

What was measured:
hCA II = target: T1, hCA II (Homo sapiens, UniProt P00918); assay: stopped-flow CO2 hydrase assay; type: biochemical; conditions: read-out: hCA I
T1 construct: gene CA2; recombinant, obtained in-house; cytosolic isoform
Source text: stopped-flow CO2 hydrase assay on hCA II

hCA XII = target: T2, hCA XII (Homo sapiens, UniProt O43570); assay: stopped-flow CO2 hydrase assay; type: biochemical; conditions: […] HEPES pH […] Na2SO4, CO2 substrate; […] h preincubation
T2 construct: gene CA12; recombinant, obtained in-house; tumour-associated isoform
T2 sequence (O43570 25-354 limits assumed): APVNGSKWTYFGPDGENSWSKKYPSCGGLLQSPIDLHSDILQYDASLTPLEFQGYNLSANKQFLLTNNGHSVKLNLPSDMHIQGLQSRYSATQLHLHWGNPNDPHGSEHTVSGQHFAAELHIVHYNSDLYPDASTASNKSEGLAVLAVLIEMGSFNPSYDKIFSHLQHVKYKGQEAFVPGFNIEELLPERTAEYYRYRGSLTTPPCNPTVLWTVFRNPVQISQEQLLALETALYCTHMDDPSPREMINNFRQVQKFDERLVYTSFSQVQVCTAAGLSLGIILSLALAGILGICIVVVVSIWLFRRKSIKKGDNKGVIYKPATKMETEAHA
Source text: (§1) stopped-flow CO2 hydrase assay on hCA XII

hCA I = target: T3, hCA I (Homo sapiens, UniProt P00915); assay: stopped-flow CO2 hydrase assay; type: biochemical
T3 construct: gene CA1; recombinant, obtained in-house; cytosolic isoform
T3 sequence (P00915 2-261): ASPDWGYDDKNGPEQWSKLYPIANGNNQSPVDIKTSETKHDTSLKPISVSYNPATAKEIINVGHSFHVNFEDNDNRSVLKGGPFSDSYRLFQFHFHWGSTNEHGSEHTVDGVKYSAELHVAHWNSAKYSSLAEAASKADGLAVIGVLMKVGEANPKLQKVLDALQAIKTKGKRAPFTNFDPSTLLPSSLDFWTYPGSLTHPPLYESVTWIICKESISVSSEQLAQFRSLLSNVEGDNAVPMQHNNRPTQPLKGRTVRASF
Source text: stopped-flow CO2 hydrase assay on hCA I

hCA VII = target: T4, hCA VII (Homo sapiens, UniProt P43166); assay: stopped-flow CO2 hydrase assay; type: biochemical; conditions: read-out: hCA I
T4 construct: gene CA7; recombinant, obtained in-house; cytosolic isoform
T4 sequence (P43166 whole entry, canonical isoform): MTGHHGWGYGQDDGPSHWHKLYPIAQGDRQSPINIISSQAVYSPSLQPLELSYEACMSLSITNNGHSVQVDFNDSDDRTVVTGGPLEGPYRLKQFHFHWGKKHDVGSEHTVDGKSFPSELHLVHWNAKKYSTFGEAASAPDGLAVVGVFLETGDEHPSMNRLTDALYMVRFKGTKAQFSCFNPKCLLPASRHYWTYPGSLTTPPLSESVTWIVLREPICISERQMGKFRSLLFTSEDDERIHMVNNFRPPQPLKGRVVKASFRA
Source text: stopped-flow CO2 hydrase assay on hCA VII

hCA IX = target: T5, hCA IX (Homo sapiens, UniProt Q16790); assay: stopped-flow CO2 hydrase assay; type: biochemical
T5 construct: gene CA9; recombinant, obtained in-house; tumour-associated isoform
Source text: stopped-flow CO2 hydrase assay on hCA IX

[1] = stopped-flow CO2 hydrase assay; type: biochemical, Homo sapiens; conditions: read-out: hCA I
Source text: as §1

[2] = […] HEPES pH […] Na2SO4, CO2 substrate, […] h preincubation

Structure (SMILES) | Ki (hCA II) [µM] | Ki (hCA XII) [nM] | Ki (hCA I) [µM] | Ki (hCA VII) [µM] | Ki (hCA IX; [2]) [nM] | Ki (hCA IX) [nM] | Ki [1] [µM]
O=C(Cc1ccccc1Nc1c(Cl)cccc1Cl)NCCOc1ccc2oc(=O)ccc2c1 [compound 1, 6-substituted coumarin containing diclofenac] | > 10 | 92.6 | > 10 | > 10 | 28.9 |  | 
NS(=O)(=O)Nc1cccc(S(=O)(=O)N2CCCC(C(=O)N3CCN(C(c4ccc(F)cc4)c4ccc(F)cc4)CC3)C2)c1 (centres unmarked) [compound 6, fluorinated benzhydryl piperazine derivative with nipecotic acid spacer (meta benzenesulfonamide)] |  |  |  |  |  | 296 | 
NS(=O)(=O)Nc1ccc(S(=O)(=O)N2CCCC(C(=O)N3CCN(C(c4ccccc4)c4ccccc4)CC3)C2)cc1 (centres unmarked) [compound 8, benzhydryl piperazine derivative with nipecotic acid spacer (para)] |  |  |  |  |  | 1410 | 
NS(=O)(=O)Nc1ccccc1S(=O)(=O)N1CCCC(C(=O)N2CCN(C(c3ccccc3)c3ccccc3)CC2)C1 (centres unmarked) [compound 7, benzhydryl piperazine derivative with nipecotic acid spacer (ortho)] |  |  |  |  |  | > 10000 | 
CC(C(=O)NCCOc1ccc2oc(=O)ccc2c1)c1ccc(-c2ccccc2)c(F)c1 (centres unmarked) [compound 2, 6-substituted coumarin containing flurbiprofen] |  |  | > 10 | > 10 | 23.5 |  | 
CC(C(=O)NCCOc1ccc2ccc(=O)oc2c1)c1ccc(-c2ccccc2)c(F)c1 (centres unmarked) [compound 4, 7-substituted coumarin containing flurbiprofen] | > 10 |  | > 10 | > 10 |  | 159 | > 10
O=C(Cc1ccccc1Nc1c(Cl)cccc1Cl)NCCOc1ccc2ccc(=O)oc2c1 [compound 3, 7-substituted coumarin containing diclofenac] | > 10 | 80.9 | > 10 | > 10 | 89.7 |  | 
NS(=O)(=O)Nc1ccc(S(=O)(=O)N2CCCC(C(=O)N3CCN(C(c4ccc(F)cc4)c4ccc(F)cc4)CC3)C2)cc1 (centres unmarked) [compound 9, fluorinated benzhydryl analogue of 8 (para)] |  |  |  |  |  | 902 | 
NS(=O)(=O)Nc1cccc(S(=O)(=O)NCCC(=O)N2CCN(C(c3ccccc3)c3ccccc3)CC2)c1 [compound 5, benzhydryl piperazine derivative with beta-alanine spacer (meta benzenesulfonamide)] |  |  |  |  |  | 1020 | 
